Test results taken from the supplement of paper PMC10307832.

The cell lines below were run with CC(C)C[C@H](NC(=O)[C@H](CCc1ccccc1)NC(=O)CN1CCOCC1)C(=O)N[C@@H](Cc1ccccc1)C(=O)N[C@@H](CC(C)C)C(=O)[C@@]1(C)CO1 [Carfilzomib] + O=C(CCCCCCC(=O)Nc1ccccc1)NO [Vorinostat] (partner 1 µM) (assay: relative viability (nuclei count vs DMSO), 5 days (fraction); higher = more cells survive). Conditions: first compound 0.1 µM.
Method in brief: (§1)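 Each reported value is a median over duplicate plates. It expresses relative viability: treated-well nuclei count divided by vehicle-well nuclei count. Lung cancer cell lines in 1536-well plates were dosed by pin tool a day after seeding, alone with one drug or with a fixed anchor-drug dose plus five library-drug doses (not always all listed) in √10 steps, and nuclei were counted after 5 days.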

Row | Cell Line | relative viability
1 | LCLC-97TM1 | 0.0462
2 | LCLC-103H | 0.218
3 | LK-2 | 0.175
4 | LOU-NH91 | 0.328
5 | LU99A | 0.167
6 | LXF-289 | 0.101
7 | NCI-H23 | 0.0962
8 | NCI-H322M | 0.38
9 | NCI-H441 | 0.141
10 | NCI-H522 | 0.412
11 | NCI-H1648 | 0.212
12 | NCI-H2342 | 0.421
13 | SW 900 | 0.188

The cell lines below were run with C[C@@H](Oc1cc(-c2cnn(C3CCNCC3)c2)cnc1N)c1c(Cl)ccc(F)c1Cl [Crizotinib] + CCNC(=O)c1noc(-c2cc(C(C)C)c(O)cc2O)c1-c1ccc(CN2CCOCC2)cc1 [Luminespib] (partner 0.01 µM) in the same assay as above. Conditions: first compound 0.01 µM.
Method in brief: as §1

Row | Cell Line | relative viability
14 | 201T | 1.01
15 | A-427 | 0.91
16 | BEN | 0.504
17 | CAL-12T | 0.297
18 | COR-L23 | 0.655
19 | COR-L 105 | 0.686
20 | ChaGo-K-1 | 0.438
21 | EKVX | 0.953
22 | EMC-BAC-2 | 1.12
23 | EPLC-272H | 0.236
24 | H3255 | 0.928
25 | HARA | 0.819
26 | HCC-15 | 0.382
27 | HCC-44 | 1.03
28 | HCC-827 | 0.542
29 | HOP-62 | 0.915

Row | Cell Line | relative viability
30 | LC-2-ad | 0.953
31 | LCLC-97TM1 | 0.723
32 | LCLC-103H | 0.856
33 | LK-2 | 0.173
34 | LOU-NH91 | 0.351
35 | LU99A | 0.234
36 | LXF-289 | 0.664
37 | NCI-H23 | 0.242
38 | NCI-H322M | 0.721
39 | NCI-H441 | 0.273
40 | NCI-H522 | 1.05
41 | NCI-H1563 | 0.528
42 | NCI-H1792 | 0.46
43 | NCI-H2342 | 0.635
44 | SW 900 | 0.172

Same assay, conditions: first compound 0.03162 µM

Row | Cell Line | relative viability
45 | 201T | 1.07
46 | A-427 | 0.904
47 | ABC-1 | 0.865
48 | BEN | 0.301
49 | CAL-12T | 0.339
50 | COR-L23 | 0.665
51 | COR-L 105 | 0.859
52 | ChaGo-K-1 | 0.546
53 | EMC-BAC-2 | 1.25
54 | EPLC-272H | 0.343
55 | H3255 | 0.971
56 | HARA | 0.77
57 | HCC-15 | 0.409
58 | HCC-44 | 0.99
59 | HCC-827 | 0.651
60 | HOP-62 | 0.789

Row | Cell Line | relative viability
61 | LC-2-ad | 0.943
62 | LCLC-97TM1 | 0.796
63 | LCLC-103H | 0.987
64 | LK-2 | 0.188
65 | LOU-NH91 | 0.311
66 | LU99A | 0.22
67 | LXF-289 | 0.726
68 | NCI-H23 | 0.221
69 | NCI-H322M | 0.994
70 | NCI-H441 | 0.315
71 | NCI-H522 | 1.06
72 | NCI-H1563 | 0.505
73 | NCI-H1623 | 0.469
74 | NCI-H1792 | 0.39
75 | NCI-H2342 | 0.931
76 | SW 900 | 0.164

Same assay, conditions: first compound 0.1 µM

Row | Cell Line | relative viability
77 | A-427 | 0.946
78 | ABC-1 | 0.628
79 | BEN | 0.38
80 | CAL-12T | 0.232
81 | COR-L23 | 0.656
82 | COR-L 105 | 0.712
83 | ChaGo-K-1 | 0.517
84 | EKVX | 0.947
85 | EMC-BAC-2 | 1.09
86 | EPLC-272H | 0.197
87 | H3255 | 0.831
88 | HARA | 0.708
89 | HCC-15 | 0.443
90 | HCC-44 | 0.988
91 | HCC-827 | 0.784
92 | HOP-62 | 0.995

Row | Cell Line | relative viability
93 | LC-2-ad | 1.09
94 | LCLC-97TM1 | 0.67
95 | LCLC-103H | 0.856
96 | LK-2 | 0.188
97 | LOU-NH91 | 0.346
98 | LU99A | 0.254
99 | LXF-289 | 0.662
100 | NCI-H23 | 0.206
101 | NCI-H322M | 0.725
102 | NCI-H441 | 0.399
103 | NCI-H522 | 1.05
104 | NCI-H1563 | 0.49
105 | NCI-H1623 | 0.502
106 | NCI-H1792 | 0.529
107 | NCI-H2342 | 0.674
108 | SW 900 | 0.19

Same assay, conditions: first compound 0.3162 µM

Row | Cell Line | relative viability
109 | 201T | 1.06
110 | ABC-1 | 0.496
111 | BEN | 0.198
112 | COR-L23 | 0.775
113 | COR-L 105 | 0.804
114 | ChaGo-K-1 | 0.526
115 | EKVX | 0.939
116 | EMC-BAC-2 | 1.16
117 | EPLC-272H | 0.262
118 | H3255 | 0.743
119 | HCC-44 | 1.05
120 | HCC-827 | 0.52
121 | HOP-62 | 0.855
122 | LC-2-ad | 0.942
123 | LCLC-97TM1 | 0.714
124 | LOU-NH91 | 0.34
125 | LU99A | 0.23
126 | LXF-289 | 0.445
127 | NCI-H23 | 0.212
128 | NCI-H322M | 1
129 | NCI-H522 | 1.15
130 | NCI-H1563 | 0.566
131 | NCI-H1623 | 0.486
132 | NCI-H2342 | 0.705
133 | SW 900 | 0.194

Same assay, conditions: first compound 1 µM

Row | Cell Line | relative viability
134 | A-427 | 0.963
135 | BEN | 0.549
136 | CAL-12T | 0.201
137 | COR-L23 | 0.687
138 | COR-L 105 | 0.769
139 | ChaGo-K-1 | 0.747
140 | EKVX | 0.865
141 | EMC-BAC-2 | 1.22
142 | EPLC-272H | 0.577
143 | HARA | 0.682
144 | HCC-15 | 0.334
145 | HCC-44 | 1.06
146 | HCC-827 | 0.646
147 | HOP-62 | 0.902
148 | LC-2-ad | 0.91
149 | LCLC-97TM1 | 0.799
150 | LCLC-103H | 1.02
151 | LK-2 | 0.201
152 | LOU-NH91 | 0.345
153 | LU99A | 0.246
154 | LXF-289 | 0.609
155 | NCI-H23 | 0.236
156 | NCI-H322M | 0.964
